Values quoted from earlier work, collected in US7732395B2, “Water-stabilized antimicrobial organosilane products, compositions, and methods for using the same” (Vitec Specialty Chemicals Ltd., priority 2006, dated 2010).

Details: prior art

For `CCCCCCCCCCCCCCCCCC[N+](C)(C)CCC[Si](OC)(OC)OC.[Cl-]` [3-(trimethoxysilyl)propyl-dimethyloctadecyl ammonium chloride], the “time after which the mixture with water begins to lose effectiveness” value is listed as “four to eight”.
